What was measured:
HIV = experiment: in vitro anti-HIV assay: inhibition of HIV-induced cytopathic effect in MT-4 cells (MTT); type: cell-based; conditions: for pSI: pSI = pCC50-pIC50 (selectivity index CC50/IC50); for pIC50 (M): −log IC50
Experimental: (§1) A rapid, sensitive and automated assay procedure was used for the in vitro evaluation of anti-HIV agents. […] Inhibition of the HIV-induced cytopathic effect was used as the end point. The viability of both HIV- and mock-infected cells was assessed spectrophotometrically via the in situ reduction of 3-(4,5-dimethylthiazol-2-yl)-2,5-diphenyltetrazolium bromide (MTT). The 50% cytotoxic concentration (CC50 in M) was defined as the concentration of compound that reduced the absorbance of the mock-infected control sample by 50%. The percent protection achieved by the compound in HIV-infected cells was calculated by the following formula:
(§2) [formula] whereby (ODT)HIV is the optical density measured with a given concentration of the test compound in HIV-infected cells; (ODC)HIV is the optical density measured for the control untreated HIV-infected cells; (ODC)MOCK is the optical density measured for the control untreated mock-infected cells; all optical density values were determined at 540 nm. The dose achieving 50% protection according to the above formula was defined as the 50% inhibitory concentration (IC50 in M). The ratio of CC50 to IC50 was defined as the selectivity index (SI).

[1] = cytotoxicity (CC50) in mock-infected MT-4 cells (MTT); type: cell-based; conditions: human, mock-infected MT-4 cells, −log CC50, MTT
Experimental: as §1, §2

mock-infected MT-4 cells = experiment: as above; type: cell-based
Experimental: as §1, §2

[2] = effect of surfactant on solubility and stability of the supersaturated condition (0.01 N HCl, 37° C.); type: physicochemical
Experimental: Aqueous solutions of 2.5% (w/v) of hydroxypropyl-β-cyclodextrin (HPβCD), 2.5% (w/v) of Vit E TPGS [2], 2.5% (w/v) Cremophor RH 40 [3], 2.5% (w/v) of sodium lauryl sulfate or 2.5% (w/v) of PEG 4000 [5] in 0.01 N HCl at 37° C. were prepared.
To 10 ml of these solutions, with stirring, a concentrated solution of R278474 or R165335 in N,N-dimethylformamide (100 mg/ml) was added dropwise until precipitation of the drug compound was observed. After 5, 30, 60 and 120 minutes, the concentration of dissolved R278474 or R165335 expressed in mg % (i.e. the number of mg dissolved in 100 ml) was determined.

[3] = 50% protection against HIV-induced cytopathic effect in MT-4 cells, MTT
[4] = [1] 2.5% (w/v) HPβCD in 0.01 N HCl, 5 minutes
[5] = [1] 2.5% (w/v) HPβCD in 0.01 N HCl, 30 minutes
[6] = [1] 2.5% (w/v) HPβCD in 0.01 N HCl, 60 minutes
[7] = [1] 2.5% (w/v) HPβCD in 0.01 N HCl, 120 minutes
[8] = [5] 2.5% (w/v) PEG 4000 in 0.01 N HCl, 5 minutes
[9] = [5] 2.5% (w/v) PEG 4000 in 0.01 N HCl, 30 minutes
[10] = [5] 2.5% (w/v) PEG 4000 in 0.01 N HCl, 60 minutes
[11] = [5] 2.5% (w/v) PEG 4000 in 0.01 N HCl, 120 minutes

Question: For `Cc1cc(-c2ccco2)cc(C)c1Nc1ccnc(Nc2ccc(C#N)cc2)n1` [Compound 3], which pSI (HIV) is on record?
Answer: −2.9

Question: What about the CC50 [1] of the same compound?
Answer: 3.16 µM

Question: Which results are given for `CO/N=C(\c1cc(C)c(Nc2ccnc(Nc3ccc(C#N)cc3)n2)c(C)c1)C(C)C` [Compound 9]?
Answer: pSI (HIV): −4; CC50 [1]: 15.8 µM

Question: For `C/C(C#N)=C/c1cc(C)c(Nc2ccnc(Nc3ccc(C#N)cc3)n2)c(C)c1` [Compound 11], which IC50 (HIV; Human immunodeficiency virus 1, MT4, −log IC50, 50% protection against HIV-induced cytopathic effect in MT-4 cells, MTT) is on record?
Answer: 0.000631 µM

Question: What about the pSI (HIV) of the same compound?
Answer: −3.5

Question: What about the CC50 [1] of the same compound?
Answer: 2 µM

Question: Which results are given for `Cc1cc(C(O)CC#N)cc(C)c1Nc1ccnc(Nc2ccc(C#N)cc2)n1` (centres unmarked) [Compound 18]?
Answer: pSI (HIV): −4.0; CC50 [1]: 12.6 µM

Question: What does the source list for `Cc1cc(-c2ccsc2)cc(C)c1Nc1ccnc(Nc2ccc(C#N)cc2)n1` [Compound 21]?
Answer: pSI (HIV): −3.5; CC50 [1]: 12.6 µM

Question: Which results are given for `Cc1cc(CCC#N)cc(C)c1Nc1ccnc(Nc2ccc(C#N)cc2)n1` [Compound 24]?
Answer: pSI (HIV): −3.4; CC50 [1]: 2 µM

Question: What does the source list for `CC(=O)c1cccc(-c2cc(C)c(Nc3ccnc(Nc4ccc(C#N)cc4)n3)c(C)c2)c1` [Compound 34]?
Answer: pSI (HIV): −3.2; CC50 [1]: 15.8 µM

Question: For `N#C/C=C/c1ccc(Nc2ccnc(Nc3ccc(C#N)cc3)n2)c(Br)c1` [Compound 244], which pSI (HIV) is on record?
Answer: −5.2

Question: And the “pIC50 (M)” value (HIV; [3])?
Answer: 9.2 M

Question: And the “pCC50 (M)” value (mock-infected MT-4 cells)?
Answer: 4 M

Question: With `COc1cc(/C=C/C#N)ccc1Nc1ccnc(Nc2ccc(C#N)cc2)n1` [Compound 245] as the compound, how does the pSI (HIV) read?
Answer: −4.8

Question: What about the “pIC50 (M)” value (HIV; [3]) of the same compound?
Answer: 8.8 M

Question: And the “pCC50 (M)” value (mock-infected MT-4 cells)?
Answer: 4 M

Question: What does the source list for `CC(C#N)=Cc1cc(C)c(Nc2ccnc(Nc3ccc(C#N)cc3)n2)c(Br)c1` [Compound 247]?
Answer: pSI (HIV): −3; pIC50 (M) (HIV; [3]): 9.2 M; pCC50 (M) (mock-infected MT-4 cells): 6.2 M

Question: With `Cc1cc(/C=C/C#N)cc(Br)c1Nc1ccnc(Nc2ccc(C#N)cc2)n1` [Compound 248] as the compound, how does the pSI (HIV) read?
Answer: −3.5

Question: What about the “pIC50 (M)” value (HIV; [3]) of the same compound?
Answer: 9.3 M

Question: What about the “pCC50 (M)” value (mock-infected MT-4 cells) of the same compound?
Answer: 5.7 M

Question: What does the source list for `COc1cc(C=C(C)C#N)ccc1Nc1ccnc(Nc2ccc(C#N)cc2)n1` [Compound 249]?
Answer: pSI (HIV): −4.5; pIC50 (M) (HIV; [3]): 8.5 M; pCC50 (M) (mock-infected MT-4 cells): 4 M

Question: For `COc1cc(CCC#N)ccc1Nc1ccnc(Nc2ccc(C#N)cc2)n1` [Compound 251], which pSI (HIV) is on record?
Answer: −3.9

Question: What about the “pIC50 (M)” value (HIV; [3]) of the same compound?
Answer: 8.9 M

Question: What about the “pCC50 (M)” value (mock-infected MT-4 cells) of the same compound?
Answer: 5 M

Question: What does the source list for `Cc1cc(C#N)cc(C)c1Oc1nc(Nc2ccc(C#N)cc2)nc(N)c1Br` [Compound R165335, 4-[[6-amino-5-bromo-2-[(4-cyanophenyl)amino]-4-pyrimidinyl]oxy]-3,5-dimethylbenzonitrile]?
Answer: concentration of dissolved drug [2, 4]: 0.04 mg %; concentration of dissolved drug [2, 5]: 0.12 mg %; concentration of dissolved drug [2, 6]: 0.17 mg %; concentration of dissolved drug [2, 7]: 0.07 mg %; concentration of dissolved drug ([2]; [3] 2.5% (w/v) Cremophor RH 40 in 0.01 N HCl, 5 minutes): 54.20 mg %; concentration of dissolved drug ([2]; [3] 2.5% (w/v) Cremophor RH 40 in 0.01 N HCl, 30 minutes): 24.88 mg %; concentration of dissolved drug ([2]; [3] 2.5% (w/v) Cremophor RH 40 in 0.01 N HCl, 60 minutes): 20.06 mg %; concentration of dissolved drug ([2]; [3] 2.5% (w/v) Cremophor RH 40 in 0.01 N HCl, 120 minutes): 18.44 mg %; concentration of dissolved drug ([2]; [4] 2.5% (w/v) sodium lauryl sulfate in 0.01 N HCl, 5 minutes): 35.09 mg %; concentration of dissolved drug ([2]; [4] 2.5% (w/v) sodium lauryl sulfate in 0.01 N HCl, 30 minutes): 37.85 mg %; concentration of dissolved drug ([2]; [4] 2.5% (w/v) sodium lauryl sulfate in 0.01 N HCl, 60 minutes): 38.80 mg %; concentration of dissolved drug ([2]; [4] 2.5% (w/v) sodium lauryl sulfate in 0.01 N HCl, 120 minutes): 38.35 mg %; concentration of dissolved drug [2, 8]: 0.02 mg %; concentration of dissolved drug [2, 9]: 0.04 mg %; concentration of dissolved drug [2, 10]: 0.07 mg %; concentration of dissolved drug [2, 11]: 0.04 mg %

Question: Which results are given for `Cc1cc(C=CC#N)cc(C)c1Nc1ccnc(Nc2ccc(C#N)cc2)n1` [Compound R278474, 4-[[4-[[4-(2-cyanoethenyl)-2,6-dimethylphenyl]amino]-2-pyrimidinyl]amino]benzonitrile]?
Answer: concentration of dissolved drug ([2]; 0.01N HCl, 5 minutes): 18.02 mg %; concentration of dissolved drug ([2]; 0.01N HCl, 30 minutes): 16.30 mg %; concentration of dissolved drug ([2]; 0.01N HCl, 60 minutes): 15.90 mg %; concentration of dissolved drug ([2]; 0.01N HCl, 120 minutes): 15.95 mg %; concentration of dissolved drug [2, 4]: 27.68 mg %; concentration of dissolved drug [2, 5]: 24.80 mg %; concentration of dissolved drug [2, 6]: 24.40 mg %; concentration of dissolved drug [2, 7]: 24.10 mg %; concentration of dissolved drug ([2]; [2] 2.5% (w/v) Vit E TPGS in 0.01 N HCl, 5 minutes): 91.75 mg %; concentration of dissolved drug ([2]; [2] 2.5% (w/v) Vit E TPGS in 0.01 N HCl, 30 minutes): 83.50 mg %; concentration of dissolved drug ([2]; [2] 2.5% (w/v) Vit E TPGS in 0.01 N HCl, 60 minutes): 76.25 mg %; concentration of dissolved drug ([2]; [2] 2.5% (w/v) Vit E TPGS in 0.01 N HCl, 120 minutes): 75.25 mg %; concentration of dissolved drug [2, 8]: 23.60 mg %; concentration of dissolved drug [2, 9]: 21.60 mg %; concentration of dissolved drug [2, 10]: 20.60 mg %; concentration of dissolved drug [2, 11]: 20.10 mg %

From US9192577B2, “Pharmaceutical compositions comprising a basic drug compound, a surfactant, and a physiologically tolerable water soluble acid” (Janssen Pharmaceutica NV, priority 2002, dated 2015)
